# From publication PMC4351081, “Lincosamide Synthetase—A Unique Condensation System Combining Elements of Nonribosomal Peptide Synthetase and Mycothiol Metabolism” (PLoS ONE, 2015)
# Biological target: T1, LmbC (with holo-LmbN-CP) (Streptomyces lincolnensis, UniProt A9Y8R4)
# T1 construct: gene SLINC_0236; LmbC: stand-alone NRPS adenylation domain, recombinant, produced as described previously; LmbN-CP: stand-alone N-terminal ~80-residue CP domain, C-terminal His-tag, E. coli BL21(DE3), phosphopantetheinylated by Slp (holo); with LmbN, N-terminal carrier protein domain (LmbN-CP)
# T1 sequence (A9Y8R4 1-509): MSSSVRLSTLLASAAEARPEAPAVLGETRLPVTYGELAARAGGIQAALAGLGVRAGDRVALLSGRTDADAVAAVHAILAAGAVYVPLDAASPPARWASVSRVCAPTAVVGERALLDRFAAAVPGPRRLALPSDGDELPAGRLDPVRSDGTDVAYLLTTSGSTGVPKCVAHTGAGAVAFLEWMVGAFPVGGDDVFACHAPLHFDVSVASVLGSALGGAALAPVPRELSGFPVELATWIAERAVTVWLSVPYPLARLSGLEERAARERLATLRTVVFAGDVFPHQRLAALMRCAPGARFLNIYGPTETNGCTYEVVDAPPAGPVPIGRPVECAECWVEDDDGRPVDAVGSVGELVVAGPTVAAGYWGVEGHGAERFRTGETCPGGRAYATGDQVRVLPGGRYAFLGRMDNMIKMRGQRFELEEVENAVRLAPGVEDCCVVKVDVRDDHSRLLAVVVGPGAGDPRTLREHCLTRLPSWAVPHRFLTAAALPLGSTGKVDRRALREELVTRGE
# T1 sequence (A9Y8S4 1-80 partner limits assumed): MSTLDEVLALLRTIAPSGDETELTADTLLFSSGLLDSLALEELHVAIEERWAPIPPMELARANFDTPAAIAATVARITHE
# Experiment: LC-MS (FT-ICR) of aminoacylated carrier protein
# Format: biochemical
# Details: 3 mM PPL, 1.2 mM ATP, Mg2+, in vitro or in vivo phosphopantetheinylated LmbN-CP, 0.6 uM LmbC, pH 8.8, 28 C, 50 min; PPL transferred to holo-LmbN-CP (covalent)
smiles,measurement,value
CCCC1CN[C@H](C(=O)O)C1 (stereo partly drawn) [4-propyl-L-proline],LC-MS (FT-ICR) of aminoacylated carrier protein,A-domain LmbC together with LmbN-holo-CP activate the PPL precursor of lincomycin
